In patent publication US9023878B2 (Neurophyxia B.V., priority 2010, dated 2015):
Where “and” joins values, the source holds several entries; their conditions need not be identical. Equal entries are not always repeated. Marks after values point to notes of the source that are not given here.

Assays:
[1] = Solubility of 2-IB in water at different pH; type: physicochemical
[2] = Solubility in citrate buffers (excess 2-IB, filtered, RP-HPLC); type: physicochemical
Protocol: An excess of 2-IB was added to citrate buffers, mixed at room temperature and then filtered to remove nonsolubilised 2-IB.

[3] = Solubility of 2-IB in 10% SBE-CD at different pH adjusted with 0.1 M citric acid (HPLC); type: physicochemical
Protocol: The experimental steps are shown as below.
1. Weigh 0.5 g of SBE-CD into 10 ml glass vial
2. Add 3 ml WFI into each vial to dissolve SBE-CD
4. Magnetic stirring for 1 h
5. Adjust pH to target pH with 0.1 M citric acid
6. Determine the weight of 0.1 M citric acid added
7. Add WFI to total weight of 5 g
8. Measure pH again after 1 hour stirring
9. Filtrate through the formulation through PVDF 0.22 um filter

[4] = Novel excipients (Cremophor EL, Solutol HS 15): 2-IB content of formulations at t=0 and after 48 hours; conditions: for Concentration t = 0 / Concentration t = 48 h: Solutol HS 15 formulation
Protocol: Finally two novel excipients were tested, Cremophor EL and Solutol HS 15.
A range of 2-IB formulations were prepared that were stored for 48 hours and measured for 2-IB content:

[5] = Formulation preparation: dissolution and titration to higher pH; type: physicochemical; conditions: 1.5 mg/g of 2-IB at pH 7.0, overnight stirring
From the text: This might be due to the different approaches for the solubility testing and the formulation preparation. […] The six formulations were all transparent and colorless solutions.
It is not feasible to increase the solubility by preparing a formulation at a low pH first and then titrate to a high pH.

[6] = From the text: Necropsy took place approximately one hour after the second injection. Blood and brain samples were collected for both the mother and fetuses.
[7] = nominal 5.0 mg/ml, pH 2.4, after filtration
[8] = nominal 5.0 mg/ml, pH 2.8, after filtration
[9] = nominal 5.0 mg/ml, pH 3.0, after filtration
[10] = nominal 5.0 mg/ml, pH 3.5, after filtration
[11] = nominal 5.0 mg/ml, pH 3.6, after filtration
[12] = nominal 5.0 mg/ml, pH 3.8, after filtration
[13] = nominal 5.0 mg/ml, pH 10.2, after filtration
[14] = nominal 10 mg/ml, pH 3.0, after filtration
[15] = nominal 10 mg/ml, pH 3.5, after filtration
[16] = nominal 20 mg/ml, pH 3.0, after filtration
[17] = nominal 20 mg/ml, pH 3.5, after filtration
[18] = 960 mg/kg/24 h 2-IB in 5% Solutol, continuous iv infusion
[19] = average of 4 litters, maternal dose 55 mg/kg sc, 55 mg/kg
[20] = average of 4 maternal rats, 55 mg/kg sc, 55 mg/kg
[21] = pooled female fetuses per maternal rat, maternal dose 55 mg/kg sc, 55 mg/kg
[22] = pooled male fetuses per maternal rat, maternal dose 55 mg/kg sc, 55 mg/kg

Protocol for Wistar rats: Group I: Vehicle 20% Solutol (Continuous Intravenous Infusion)
Animals received a continuous infusion of vehicle only (20% Solutol in 5% dextrose) at a dose volume of 4 mL/kg/h for 24 hours.
Group II: Vehicle 5% Solutol (Continuous Intravenous Infusion)
Animals received a continuous infusion of vehicle only (5% Solutol in 5% dextrose) at a dose volume of 4 mL/kg/h for approximately 96 hours.
Group III: 960 mg/kg/24 h of 2-IBin 5% Solutol (Continuous Intravenous Infusion).

## N=C1N[C@H]2[C@H](CS[C@H]2CCCCC(=O)O)N1 [Formulation 2-IB, 2-iminobiotin]
[1]; pH 5
  solubility in water: around 0.59 mg/ml
[1]; pH 7.4
  solubility in water: around 0.34 mg/ml
[2]; 50 mM Citrate pH 3.0, final pH 3.07, room temperature
  Conc. 2IB: 11000 µg/mL and 11270 µg/mL
[2]; 50 mM Citrate pH 3.5, final pH 3.52
  Conc. 2IB: 4450 µg/mL
[2]; 50 mM Citrate pH 4.0, final pH 4.03
  Conc. 2IB: 1720 µg/mL
[2]; 50 mM Citrate pH 4.5, final pH 4.54
  Conc. 2IB: 860 µg/mL
[2]; 50 mM Citrate pH 5.0, final pH 5.02
  Conc. 2IB: 590 µg/mL
[3]; pH 4.0
  Solubility of 2-IB: 13.08 mg/g
[3]; pH 4.5
  Solubility of 2-IB: 9.00 mg/g
[3]; pH 5.0
  Solubility of 2-IB: 5.2 mg/g and 5.21 mg/g
[3]; pH 5.1
  Solubility of 2-IB: 5.30 mg/g
[3]; pH 5.5
  Solubility of 2-IB: 3.29 mg/g
[3]; pH 6.2
  Solubility of 2-IB: 1.94 mg/g
[3]; pH 7.0
  Solubility of 2-IB: 1.71 mg/g
[4]; 5-10-15-20-25% Solutol HS 15 tested at approximately 5 mg/ml
  Solutol HS 15 concentration giving optimal solubility: 20%
[4]; 20% Solutol HS 15 and 5% Dextrose in water
  pH at which the formulation could be prepared: 3.5-3.6
[4]; [7]
  Concentration t = 0: 5650 µg/mL
  Concentration t = 48 h: 4780 µg/mL
[4]; [8]
  Concentration t = 0: 5430 µg/mL
  Concentration t = 48 h: 5450 µg/mL
[4]; [9]
  Concentration t = 0: 4640 µg/mL
  Concentration t = 48 h: 4870 µg/mL
[4]; [10]
  Concentration t = 0: 5210 µg/mL
  Concentration t = 48 h: 4940 µg/mL
[4]; [11]
  Concentration t = 0: 4520 µg/mL
  Concentration t = 48 h: 3930 µg/mL
[4]; [12]
  Concentration t = 0: 5100 µg/mL
  Concentration t = 48 h: 2620 µg/mL
[4]; [13]
  Concentration t = 0: 5710 µg/mL
  Concentration t = 48 h: 0 µg/mL
[4]; [14]
  Concentration t = 0: 9060 µg/mL
  Concentration t = 48 h: 8640 µg/mL
[4]; [15]
  Concentration t = 0: 8300 µg/mL
  Concentration t = 48 h: 8040 µg/mL
[4]; [16]
  Concentration t = 0: 16600 µg/mL
  Concentration t = 48 h: 16700 µg/mL
[4]; [17]
  Concentration t = 0: 14700 µg/mL
  Concentration t = 48 h: 13200 µg/mL
[5]
  dissolution on formulation preparation: did not dissolve completely after overnight stirring
Wistar rats; [18]
  bilirubin levels: within the normal range
  body weights: increased for two animals
  clinical chemistry at the end of treatment: slight to moderate increase in aspartate aminotransferase (1/2), alkaline phosphatase (1/2), and glucose (2/2)
  creatinine and urine at the end of treatment: high values for creatinine and urine (1/2)
  macroscopic findings at necropsy: oedema (2/3), pelvic dilation of the kidneys (2/3), enlarged liver (1/3), enlarged iliac lymph node (113), dark spots on the lungs (1/3), and fibrin-like coating in or around the femoral vein
Wistar rats; 960 mg/kg/24 h 2-IB in 5% Solutol, continuous iv infusion, Days 2-3
  clinical signs: hunched posture, piloerection and pallor
Wistar rats; 960 mg/kg/24 h 2-IB in 5% Solutol/5% dextrose, continuous iv infusion 4 mL/kg/h, terminated after 46 hours
  mortality: One animal died after 46 hours of infusion
[6]; 55 mg/kg sc, Day 20 post-coitum
  mortality of maternal animals: No mortality occurred
[6]; [19]
  2-IB concentration in brain, female fetuses, average (±SD): 369 ng/g and 369 (±72) ng/g
  2-IB concentration in brain, male fetuses, average (±SD): 329 ng/g and 329 (±72) ng/g
  2-IB plasma concentration, female fetuses, average (±SD): 1,903 ng/mL and 1,903 (±437) ng/mL
  2-IB plasma concentration, male fetuses, average (±SD): 1,765 ng/mL and 1,765 (±259) ng/mL
[6]; [20]
  2-IB concentration in brain, maternal, average (±SD): 268 ng/g and 268 (±92) ng/g
  2-IB plasma concentration, maternal, average (±SD): 10,039 ng/mL and 10,039 (±3371) ng/mL
[6]; individual maternal Wistar rats, 55 mg/kg sc, 55 mg/kg
  2-IB concentration in brain sample, maternal: 151 ng/g and 375 ng/g and 270 ng/g and 276 ng/g
[6]; individual maternal Wistar rats, Day 20 post-coitum, 2 sc injections of 27.5 mg/kg, approximately one hour after second injection, 27.5 mg/kg
  2-IB plasma concentration, maternal: 7,104 ng/mL and 14,185 ng/mL and 7,490 ng/mL and 11,378 ng/mL
[6]; [21]
  2-IB concentration in brain sample, pooled fetuses (females): 474 (n = 3) ng/g and 317 (n = 8) ng/g and 329 (n = 4) ng/g and 356 (n = 7) ng/g
  2-IB plasma concentration, pooled fetuses (females): 2,442* (n = 3) ng/mL and 2,063 (n = 8) ng/mL and 1,474 (n = 4) ng/mL and 1,634 (n = 7) ng/mL
[6]; [22]
  2-IB concentration in brain sample, pooled fetuses (males): 287 (n = 8) ng/g and 435 (n = 4) ng/g and 283 (n = 5) ng/g and 309 (n = 8) ng/g
  2-IB plasma concentration, pooled fetuses (males): 1,868 (n = 8) ng/mL and 2,080 (n = 4) ng/mL and 1,598 (n = 5) ng/mL and 1,512 (n = 8) ng/mL
[6]; two sc injections, total dose level 55 mg/kg
  transfer over the placenta and the blood-brain barrier: confirmed
